From patent US9084766B2, “Compounds and compositions for targeting cancer stem cells” (Boston Biomedical, Inc., priority 2010, dated 2015) come the findings set out here.

The subject of data set [1] is FaDu human head and neck cancer. Description: Antitumor activity in subcutaneous FaDu xenograft mice. Format: in vivo. The method, then:
In the studies shown in FIG. 8, immunosuppressed mice with established subcutaneous FaDu human head and neck cancer were given indicated amount of hand grounded Compound 1 with Crystal Form 1, or vehicle control orally (po). Compound 1 was formulated in […]™. All regimens were administered daily (qd). Tumor sizes were evaluated periodically during treatment.
In the study shown in FIG. 9, immunosuppressed mice with established subcutaneous FaDu human head and neck cancer were given 100 mg/kg of micronized Compound 1 produced with the synthetic process described in FIGS. 5A and 5B (first crop), or vehicle control orally (po). Compound 1 was formulated in […]™. All regimens were administered daily (qd). Tumor sizes were evaluated periodically during treatment. Form 2 has been successfully manufactured by a current good manufacturing practice (cGMP) process and received approval from the FDA and Health Canada to be used in clinical trials.
Form 3 can only be generated from Form 1 using a specially designed slurry process described herein. […] In the study shown in FIG. 10, immunosuppressed mice with established subcutaneous FaDu human head and neck cancer were given 200 mg/kg of Compound 1 with hand grounded Crystal Form 1 or Form 3, or vehicle control orally (po). Compound 1 was formulated in gelucire. All regimens were administered daily (qd). Tumor sizes were evaluated periodically during treatment. This polymorph has been successfully manufactured by a cGMP process and received approval from FDA and Health Canada to be used in clinical trials.
The anti-tumor activity of particles of Compound 1 with different particle size ranges is illustrated in FIG. 15, and the pharmacokinetic data for particles of Compound 1 with different particle size ranges is illustrated in FIGS. 16-18. In the study shown in FIG. 15, immunosuppressed mice with established subcutaneous FaDu human head and neck cancer were given indicated amount of Compound 1 with indicated particle size, or vehicle control orally (po). All regimens were administered daily (qd). Tumor size was evaluated periodically.
In an experiment, a formulation of Compound 1 particles sieved to 160 micron was tested in the model of immunosuppressed mice with established subcutaneous xenograft FaDu human head and neck cancer. The pharmaceutical composition was formulated as 80 mg/ml in 9% Gelucire, 20% Vitamin E TPGS (Table 3). […] All regimens were administered daily (qd).
In an experiment, Compound 1 crystals were milled to a median particle size of about 20 micron. […] All regimens were administered daily (qd).
FaDu human head and neck cancer cells were inoculated subcutaneously into female athymic nude mice (6×10^6 cells/mouse) and allowed to form palpable tumors. When the tumors reached approximately 100 mm^3, the animals were treated orally (po) with Compound 1 at 100 mg/kg or vehicle control daily. Compound 1 was formulated at 10 mg/ml in 20% gelucire. Tumors and bodyweights were measured throughout treatment (FIG. 15).
Daily examinations into the health status of each animal were also conducted. Body weights were checked every three days. Food and water was supplied daily according to the animal husbandry procedures of the facility. Treatment producing>20% lethality and or >20% net body weight loss were considered toxic. Results are expressed as mean tumor volume (mm^3)±SE. P Values<0.05 are considered to be statistically relevant.
Male or female athymic nude mice 4-5 weeks (Charles River Laboratories, Wilmington, Mass.), were acclimated to the animal housing facility for at least 1 week before study initiation. […]

The nature of data set [2]: Phase I clinical trial: plasma pharmacokinetics. The format is in vivo, human. Particulars: clinical trials (FIG. 11, FIG. 12). How it is done:
A favorable PK profile with oral bid dosing was also observed. The plasma concentration reached several folds over efficacious concentration (in vitro IC50).
In yet another suitable dosing regimen, Compound 1 is administered with food which delays the Tmax (Table 13).

In data set [3] the test system is advanced solid tumors. The data set is described as follows: Phase I clinical trial: tumor response (RECIST 1.1) and progression free survival. Particulars: clinical trials. Format: in vivo, human. An excerpt:
As of Feb. 7, 2011, 42 cancer patients with various advanced solid tumors who have failed chemotherapies were enrolled in the study.
Of the 42 patients dosed, 24 were evaluable for tumor response as of Feb. 7, 2011; 16 (16/24 evaluable patients) achieved stable disease (8 to 75+ weeks).

Molecules are shown by their SMILES. “Also recorded” adds a separate entry of the source.

In the case of `CC(=O)c1cc2c(o1)C(=O)c1ccccc1C2=O` [Crystal Form 1, 2-acetyl-4H,9H-naphtho[2,3-b]furan-4,9-dione], the anti-tumor activity result in data set [1] (hand grounded Crystal Form 1 in GELUCIRE, po qd (FIG. 8)) is reported as “limited anti-tumor activity; also recorded: low anti-tumor activity”.

For the compound `CC(=O)c1cc2c(o1)C(=O)c1ccccc1C2=O` [Crystal Form 2, 2-acetyl-4H,9H-naphtho[2,3-b]furan-4,9-dione], the “pharmacokinetics in cancer patients” value in data set [2] is “desirable pharmacokinetics”. Also, the anti-tumor activity result in data set [1] (100 mg/kg micronized (first crop) in GELUCIRE, po qd (FIG. 9)) was “potent anti-tumor activity”. Moreover, in data set [3], the “anti-tumor activity in cancer patients” value is recorded as “strong signs of anti-tumor activity”.

With `CC(=O)c1cc2c(o1)C(=O)c1ccccc1C2=O` [Crystal Form 3, 2-acetyl-4H,9H-naphtho[2,3-b]furan-4,9-dione], in data set [1] (200 mg/kg hand grounded, in gelucire, po qd (FIG. 10)), the antitumor activities result is given as “potent antitumor activities”.
